Laboratory results reported in ChEMBL document CHEMBL3352638, “Improving the MDR reversal activity of 6,17-epoxylathyrane diterpenes” (Bioorg Med Chem, 2014).

Columns and labels:
L5178Y [1] = test: Antiproliferative activity against human MDR1 transfected mouse L5178Y cells after 48 hrs by MTT assay in presence of doxorubicin; assay type: functional
[2] = molecular target: T1, ATP-dependent translocase ABCB1 (Homo sapiens, UniProt P08183); test: Inhibition of human MDR1 expressed in mouse L5178Y cells assessed as Rhodamine-123 accumulation measured as fluorescence activity at 80 uM after 20 mins by flow cytometry relative to control; assay type: cell-based
L5178Y [3] = test: Antiproliferative activity against human MDR1 transfected mouse L5178Y cells after 72 hrs by MTT assay; assay type: functional, cell-based
[4] = molecular target: T1, ATP-dependent translocase ABCB1; test: Inhibition of human MDR1 expressed in mouse L5178Y cells assessed as Rhodamine-123 accumulation measured as fluorescence activity at 20 uM after 20 mins by flow cytometry relative to control; assay type: cell-based
L5178Y [5] = test: Antiproliferative activity against mouse L5178Y cells after 72 hrs by MTT assay; assay type: functional, cell-based
[6] = molecular target: T1, ATP-dependent translocase ABCB1; test: Inhibition of human MDR1 expressed in mouse L5178Y cells assessed as Rhodamine-123 accumulation measured as fluorescence activity at 2 uM after 20 mins by flow cytometry relative to control; assay type: cell-based
[7] = molecular target: T1, ATP-dependent translocase ABCB1; test: Inhibition of human MDR1 expressed in mouse L5178Y cells assessed as Rhodamine-123 accumulation measured as fluorescence activity at 40 uM after 20 mins by flow cytometry relative to control; assay type: cell-based
[8] = molecular target: T1, ATP-dependent translocase ABCB1; test: Inhibition of human MDR1 expressed in mouse L5178Y cells assessed as Rhodamine-123 accumulation after 20 mins by flow cytometry; assay type: cell-based
[9] = molecular target: T1, ATP-dependent translocase ABCB1; test: Stimulation of vanadate-sensitive ATPase activity of human MDR1 expressed in Sf9 membrane vesicles assessed as inorganic phosphate production at 2 to 100 uM after 10 mins by colorimetry; assay type: cell membranes; settings: sf9, 10 min
[10] = molecular target: T1, ATP-dependent translocase ABCB1; test: Inhibition of verapamil-stimulated vanadate-sensitive ATPase activity of human MDR1 expressed in Sf9 membrane vesicles assessed as inorganic phosphate production at 2 to 100 uM after 10 mins by colorimetry; assay type: cell membranes; settings: sf9, 10 min

T1 sequence (P08183 whole entry): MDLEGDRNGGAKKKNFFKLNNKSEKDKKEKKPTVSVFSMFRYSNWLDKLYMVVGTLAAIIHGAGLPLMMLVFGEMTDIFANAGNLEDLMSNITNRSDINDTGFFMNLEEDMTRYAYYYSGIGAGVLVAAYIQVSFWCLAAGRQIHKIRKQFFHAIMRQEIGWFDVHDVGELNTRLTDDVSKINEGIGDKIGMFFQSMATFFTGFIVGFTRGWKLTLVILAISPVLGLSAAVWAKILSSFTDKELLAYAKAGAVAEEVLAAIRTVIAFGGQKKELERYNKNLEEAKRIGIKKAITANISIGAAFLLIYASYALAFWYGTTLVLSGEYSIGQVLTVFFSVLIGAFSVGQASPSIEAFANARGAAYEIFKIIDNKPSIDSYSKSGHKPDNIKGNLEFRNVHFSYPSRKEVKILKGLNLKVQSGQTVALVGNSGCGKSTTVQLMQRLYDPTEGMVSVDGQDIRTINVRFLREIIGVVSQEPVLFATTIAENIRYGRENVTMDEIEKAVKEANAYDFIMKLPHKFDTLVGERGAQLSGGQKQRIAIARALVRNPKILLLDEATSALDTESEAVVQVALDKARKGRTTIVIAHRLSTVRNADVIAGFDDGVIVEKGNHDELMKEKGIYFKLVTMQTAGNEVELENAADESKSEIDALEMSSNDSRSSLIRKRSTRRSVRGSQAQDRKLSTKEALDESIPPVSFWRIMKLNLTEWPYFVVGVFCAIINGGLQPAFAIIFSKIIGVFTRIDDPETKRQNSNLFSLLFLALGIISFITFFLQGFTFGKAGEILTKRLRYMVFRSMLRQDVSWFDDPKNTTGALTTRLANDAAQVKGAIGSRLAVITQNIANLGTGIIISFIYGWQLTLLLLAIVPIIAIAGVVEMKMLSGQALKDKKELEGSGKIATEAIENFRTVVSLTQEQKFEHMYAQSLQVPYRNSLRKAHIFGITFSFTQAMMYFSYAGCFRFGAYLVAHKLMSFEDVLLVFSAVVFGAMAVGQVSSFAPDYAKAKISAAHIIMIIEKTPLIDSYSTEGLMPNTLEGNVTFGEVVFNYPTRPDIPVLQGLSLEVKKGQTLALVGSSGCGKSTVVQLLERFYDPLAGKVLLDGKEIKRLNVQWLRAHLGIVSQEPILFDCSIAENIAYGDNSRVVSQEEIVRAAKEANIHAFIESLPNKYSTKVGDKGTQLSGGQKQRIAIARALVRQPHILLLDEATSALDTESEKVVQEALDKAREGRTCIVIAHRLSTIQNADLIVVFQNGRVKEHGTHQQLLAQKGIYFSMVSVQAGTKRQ

Row | SMILES | CI (L5178Y [1]) | Ratio [2] | IC50 (L5178Y [3]) | Ratio [4] | IC50 (L5178Y [5]) | Ratio [6] | Ratio [7] | inhibition (INH) [8] | Activity [9] | inhibition (INH) [10]
1 | C/C1=C\[C@@H]2[C@H](CC[C@]3(CO3)[C@H](O)[C@H]3[C@@H](O)[C@@H](C)C[C@]3(O)C1=O)C2(C)C | 0.66 | 14.8 | 89.2 µM | 1.5 | 80.9 µM | – | – | – | – | –
2 | CCC(=O)O[C@@H]1[C@@H]2[C@@H](OC(C)=O)[C@]3(CC[C@H]4[C@@H](/C=C(\C)C(=O)[C@@]2(OC(C)=O)C[C@@H]1C)C4(C)C)CO3 | 0.05 | 58.6 | 43 µM | 1 | 41.6 µM | – | – | – | – | –
3 | C/C1=C\[C@@H]2[C@H](CC[C@]3(CO3)[C@H](OC(=O)c3ccc(C)cc3)[C@H]3[C@@H](OC(=O)c4ccc(C)cc4)[C@@H](C)C[C@]3(O)C1=O)C2(C)C | 0.29 | – | 47.5 µM | 26.5 | 36.6 µM | 3.3 | – | – | – | –
4 | CCCCC(CC)C(=O)O[C@@H]1[C@@H]2[C@@H](OC(=O)C(CC)CCCC)[C@]3(CC[C@H]4[C@@H](/C=C(\C)C(=O)[C@@]2(O)C[C@@H]1C)C4(C)C)CO3 (some centres not stated) | 0.46 | – | 46.6 µM | 33.2 | 37 µM | 5.6 | – | – | – | –
5 | C/C1=C\[C@@H]2[C@H](CC[C@]3(CO3)[C@H](OC(=O)Cc3ccccc3)[C@H]3[C@@H](OC(=O)Cc4ccccc4)[C@@H](C)C[C@]3(O)C1=O)C2(C)C | 1.38 | – | 123 µM | 73.4 | 111 µM | 3.9 | 80.8 | Dose-dependent effect | – | –
6 | CCCC(=O)O[C@@H]1[C@@H]2[C@@H](OC(=O)CCC)[C@]3(CC[C@H]4[C@@H](/C=C(\C)C(=O)[C@@]2(OC(=O)CCC)C[C@@H]1C)C4(C)C)CO3 | 0.33 | – | 84.4 µM | 83.7 | 56.4 µM | 1.5 | 98 | Dose-dependent effect | – | –
7 | COc1ccc(C(=O)O[C@@H]2[C@@H]3[C@@H](OC(=O)c4ccc(OC)cc4)[C@]4(CC[C@H]5[C@@H](/C=C(\C)C(=O)[C@@]3(O)C[C@@H]2C)C5(C)C)CO4)cc1 | 0.36 | – | 86.8 µM | 23.3 | 76 µM | 3 | – | – | – | –
8 | C/C1=C\[C@@H]2[C@H](CC[C@]3(CO3)[C@H](OC(=O)c3ccccc3)[C@H]3[C@@H](OC(=O)c4ccccc4)[C@@H](C)C[C@]3(OC(=O)c3ccccc3)C1=O)C2(C)C | 0.79 | – | 59 µM | 35.2 | 40.4 µM | 1.7 | – | – | – | –
9 | C/C1=C\[C@@H]2[C@H](CC[C@]3(CO3)[C@H](O)[C@H]3[C@@H](OC(=O)/C=C/c4ccccc4)[C@@H](C)C[C@]3(O)C1=O)C2(C)C | 1.4 | – | 105 µM | 7.4 | 108 µM | 3.7 | – | – | – | –
10 | CC(=O)O[C@@H]1[C@H]2[C@@H](OC(=O)c3ccccc3)[C@@H](C)C[C@]2(OC(C)=O)C(=O)/C(C)=C/[C@@H]2[C@H](CC[C@]13CO3)C2(C)C | 0.27 | – | 63.3 µM | 80.6 | 50.4 µM | 63.4 | 102.9 | Dose-dependent effect | Active | Active
11 | CC(=O)O[C@@H]1[C@H]2[C@@H](OC(=O)CC(C)C)[C@@H](C)C[C@]2(OC(C)=O)C(=O)/C(C)=C/[C@@H]2[C@H](CC[C@]13CO3)C2(C)C | 0.43 | 22.6 | 92.5 µM | 7.8 | 66.8 µM | – | – | – | – | –
12 | C/C1=C\[C@@H]2[C@H](CC[C@]3(CO3)[C@H](OC(=O)c3ccccc3)[C@H]3[C@@H](OC(=O)c4ccccc4)[C@@H](C)C[C@]3(O)C1=O)C2(C)C | 0.24 | – | 73.3 µM | 22.9 | 68 µM | 2 | – | – | – | –
13 | CCCC(=O)O[C@@H]1[C@@H]2[C@@H](OC(C)=O)[C@]3(CC[C@H]4[C@@H](/C=C(\C)C(=O)[C@@]2(OC(C)=O)C[C@@H]1C)C4(C)C)CO3 | 0.2 | – | 79.4 µM | 74.3 | 46.4 µM | 8 | 96.9 | Dose-dependent effect | Active | Active
14 | CC(=O)O[C@@H]1[C@@H]2[C@@H](OC(C)=O)[C@]3(CC[C@H]4[C@@H](/C=C(\C)C(=O)[C@@]2(OC(C)=O)C[C@@H]1C)C4(C)C)CO3 | 0.24 | 35 | 93.5 µM | 1 | 79.3 µM | – | – | – | – | –
